Reference: PubChem BioAssay (NCI)
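Tested at 5 concentrations; 48 h exposure; 96-well plates; endpoints linearly interpolated, else capped at highest concentration. At the GI50, growth is halved. TGI: concentration producing complete growth inhibition.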

Assays:
Experiment in all cases: NCI-60 cell line screen, 48 h
A549 NSCLC = tested on: A549 NSCLC
BT-549 breast = tested on: BT-549 breast
EKVX NSCLC = tested on: EKVX NSCLC
K-562 leukemia = tested on: K-562 leukemia
M14 melanoma = tested on: M14 melanoma
NCI/ADR-RES ovarian = tested on: NCI/ADR-RES ovarian
OVCAR-3 ovarian = tested on: OVCAR-3 ovarian
SF-295 CNS = tested on: SF-295 CNS
SK-OV-3 ovarian = tested on: SK-OV-3 ovarian
UO-31 renal = tested on: UO-31 renal

SMILES	GI50 (A549 NSCLC) [µM]	TGI (A549 NSCLC) [µM]	GI50 (BT-549 breast) [µM]	TGI (BT-549 breast) [µM]	GI50 (EKVX NSCLC) [µM]	TGI (EKVX NSCLC) [µM]	GI50 (K-562 leukemia) [µM]	TGI (K-562 leukemia) [µM]	GI50 (M14 melanoma) [µM]	TGI (M14 melanoma) [µM]	GI50 (NCI/ADR-RES ovarian) [µM]	TGI (NCI/ADR-RES ovarian) [µM]	GI50 (OVCAR-3 ovarian) [µM]	TGI (OVCAR-3 ovarian) [µM]	GI50 (SF-295 CNS) [µM]	TGI (SF-295 CNS) [µM]	GI50 (SK-OV-3 ovarian) [µM]	TGI (SK-OV-3 ovarian) [µM]	GI50 (UO-31 renal) [µM]	TGI (UO-31 renal) [µM]
CCC[CH2][Sn-]([CH2]CCC)([CH2]CCC)[O]C(=O)C(C)C	0.13	0.267	0.135	0.312	0.154	0.362	0.146	0.315	0.109	0.23	0.154	0.46	0.114	0.238	0.199	0.365	0.151	0.293	0.158	0.312
CC1=NN(c2cccc(Cl)c2)C(=O)/C1=C\c1cn(CC(O)CN2CCCCC2)c2ccccc12 (stereo not given)	24.6	72.9	15	29.5	11.1	25.9	3.29	39.4	1.75	3.29	4.79	20.7	7.98	20.9	2.24	5.49	12.9	26.6	1.73	7.12
COc1cccc2c1C(=O)c1c(O)c3c(c(O)c1C2=O)C[C@@](O)(C(C)=O)CC3OC1CC(OC2CC(N)C(O)C(C)O2)C(O)C(C)O1 (stereo not given in full)		> 100		> 100		> 100		> 100		> 100		> 100		> 100		> 100		> 100		> 100
COc1cc(O)ccc1C(=S)SC		> 100		> 100		46.3		> 100		> 100		> 100		> 100		> 100		> 100		> 100
O=C(Nc1n[nH]c2cc(-c3cc(F)ccc3F)ccc12)C1CC1	11.4	> 25	> 21.7	> 25	> 22.3	> 25	7.47	> 25	13.8	> 25	9.31	> 25	9.3	24.2	16.9	> 25	11.1	> 25	16.1	> 25
Cn1c(COC(=O)NCCn2ccnc2)nc2c(N3CCOCC3)nc(-c3ccccc3)nc21	1.43	3.38	0.737	2.04	1.26	2.65	0.347	2	0.561	1.92	1.54	5.09	0.174	0.367	1.54	2.89	3.63	10.6	0.441	1.74
Oc1ccc(Cl)cc1C=Nc1cnc2ccccc2c1		> 100		> 100		> 86		> 100		> 100		> 100		> 59.8		> 100		> 100		> 100
Cc1cccc(N2C(=O)/C(=C/C(Cl)=C/c3ccc([N+](=O)[O-])cc3)SC2=S)c1C	1.66	> 100	1.61	4.08	2.73	> 100	0.793	> 100	2.39	6.86	2.97	> 100	1.83	3.87	2.28	5.25	4.93	> 100	1.29	2.56
Cc1ccc(/C(=N/Nc2ccc([N+](=O)[O-])cc2)Sc2cc(Cl)c(C)cc2S(N)(=O)=O)cc1	2.55	7.45	10.4	26	3.14	9.12	3.11	> 38.4	1.78	3.85	2.03	4.91	1.22	2.61	1.75	3.39	1.94	4.34	2.56	10.7
Cn1c(COC(=O)NCCc2ccccn2)nc2c(N3CCOCC3)nc(Cl)nc21	1.85	5.96	1.71	4.06	1.7	3.7	1.63	75.2	1.53	3.34	2.62	8.49	1.08	2.58	6.73	19.8	12	24.3	1.19	2.45
COc1ccc(-c2ccc(C3CC(c4ccccc4)=NN3)o2)c([N+](=O)[O-])c1 (stereo not given)	47.1	> 100	47.4	> 100	49.2	> 100	34.5	> 100	51.9	> 100	33.9	> 100	29.8	> 100	28.6	> 100	42.5	> 100	> 100	> 100
Cc1n[nH]c2ccccc2c1=O		> 100		> 100		> 100		> 100		> 100		> 100		> 100		> 100		> 100		> 100
